For six compounds, IC50 results are on record in ChEMBL document CHEMBL5532716, “UPLC-Q-TOF-MS/MS-Based Targeted Discovery of Chetomin Analogues from Chaetomium cochliodes” (J Nat Prod, 2024).

One assay deals with A549. As to the kind of experiment: Cytotoxicity against human A549 cells assessed as inhibition of cell viability by MTT assay. The format is functional, cell-based. A general note: Tetrazolium assays rely on reduction of a dye to a coloured formazan, in cell work by metabolically active cells.
The test system of another assay is HeLa. As to the kind of experiment: Cytotoxicity against human HeLa cells assessed as inhibition of cell viability by MTT assay. It is filed as functional, cell-based.

As usually defined, the pIC50 is −log10 of the IC50, conventionally taken in molar units.

Structures are written as SMILES. pIC50: −log10 of the molar value.

For `CN1C(=O)[C@]2(Cc3c[nH]c4ccccc34)SSSS[C@@]1(CO)C(=O)N2C`, the pIC50 in the assay with A549 was 5.66; in the assay on HeLa it was 5.72.

On to `CNC(=O)[C@@]12C[C@]3(n4cc(C[C@@]56SSSS[C@@](CO)(C(=O)N5C)N(C)C6=O)c5ccccc54)c4ccccc4N[C@@H]3N1C(=O)C(=O)N[C@H]2C`, for which the pIC50 with A549 was 5.72; in the assay on HeLa, 5.80.

For the compound `CS[C@@]12Cc3c([nH]c4ccccc34)[C@@](CO)(NC1=O)C(=O)N2`, the pIC50 in the assay on A549 and with HeLa was 4.60 throughout.

As to `CS[C@@]1(CO)C(=O)N/C(=C\c2c[nH]c3ccccc23)C(=O)N1C`, the negative logarithm of the IC50 (pIC50) in the assay on A549 and with HeLa was 4.52 throughout.

As to `CN1C(=O)[C@]2(Cc3cn([C@]45C[C@@]67SS[C@@](CO)(C(=O)N6[C@H]4Nc4ccccc45)N(C)C7=O)c4ccccc34)SS[C@@]1(CO)C(=O)N2C` [CHETOMIN], the pIC50 in the assay with A549 is 5.46; in the assay on HeLa, 5.62.

As to `CS[C@]1(CO)NC(=O)[C@](Cc2c[nH]c3ccccc23)(SC)NC1=O` [CHETOSEMINUDIN C], the results for the negative logarithm of the IC50 (pIC50) with A549 and in the assay with HeLa were 4.52 and 4.48, respectively.
